Results reported in PMC12521730, “Quantitative dual-isotope preclinical SPECT/CT imaging and biodistribution of the mercury-197m/g theranostic pair with [^197m/gHg]HgCl2 and a [^197m/gHg]Hg-tetrathiol complex as a platform for radiopharmaceutical development” (EJNMMI Radiopharmacy and Chemistry, 2025).

Assay: Ex vivo biodistribution (gamma counter)
Type: in vivo, healthy male C57BL/6 mice
Conditions: 2 h post administration
Experimental: For animal injection, the tracer was prepared at high molar activity. Radiolabeling of H4Tetrathiol (10^–2 M in DMSO; 40 μL for imaging, 20 μL for bioD) (or DMSO, for [^197m/gHg]HgCl2 mice) with [^197m/gHg]HgCl2 (imaging: 26.7 MBq total m + g, 62 μL; bioD: 13.04 MBq total m + g, 31 μL) was performed in a mixture of ammonium acetate buffer (1 M; pH 7; 198 μL for imaging or 149 μL for bioD) and 6 M NaOH (72 μL or 38 μL required to achieve a pH of 7.5 after addition of activity, for imaging or BioD labeling, respectively). The reaction was allowed to stand for 1 h at 37 °C and quantitative (> 99%) non-isolated percentage radiochemical yield (%RCY) was confirmed via the iTLC methods mentioned above. Further, 100 µL of the reaction was diluted with 50 µL of PBS Tween-20 (0.01 M sodium phosphate, 0.15 M NaCl, 0.05% Tween-20) for imaging mice, or 50 µL of the reaction was diluted with 100 µL of PBS Tween-20 for BioD mice. The tracers were prepared immediately before injection to avoid radiolysis and minimize the tracer loss to any surfaces due to its lipophilicity. The injected doses of each isomer, ^197mHg and ^197gHg, were quantified by measuring an aliquot of known volume of each tracer preparation via HPGe gamma spectroscopy and decay corrected for time of injection using the Eqs. (1) and (2).
The study was conducted in compliance with the guidelines set by the Canadian Council on Animal Care (CCAC) and approved by the Animal Care Committee (ACC) at the University of British Columbia (A20-0132). A total of eight healthy male C57BL/6 mice weighing approximately 30 g for group 1 and 25 g for group 2 were used in the study. The mice were divided into two experimental groups: group 1 (n = 4) received free [^197m/gHg]HgCl2, while group 2 (n = 4) received [^197m/gHg]Hg-Tetrathiol. Within each group, one mouse was allocated for imaging, while the rest were designated for ex vivo biodistribution analysis. For SPECT imaging, the designated mice were anesthetized using isoflurane via a precision vaporizer. […] Once anesthetized, each imaging mouse received an intravenous (IV) injection via the lateral tail vein of 150 μL of [^197m/gHg]HgCl2 (0.492 MBq ^197mHg + 3.171 MBq ^197gHg) or [^197m/gHg]Hg-Tetrathiol (0.899 MBq ^197mHg + 4.230 MBq ^197gHg) in PBS Tween-20 (0.01 M Na Phosphate, 0.15 M NaCl, 0.05% Tween-20).
Mice received an IV injection of [^197m/gHg]HgCl2 (0.275 MBq ^197mHg + 1.758 MBq ^197gHg, 150 μL) or [^197m/gHg]Hg-Tetrathiol (0.384 MBq ^197mHg + 1.733 MBq ^197gHg, 150 μL) (n = 3 per group) via the lateral tail vein using a Tailveiner restrainer. After the injection, the mice were returned to their experimental cages and allowed unrestricted movement. Biodistribution studies were conducted 2 h after administration. Mice were humanely euthanized with an overdose of isoflurane followed by cardiac puncture to collect blood pool activity. The organs of interest were fully extracted, cleaned of blood without rinsing, weighed, and analysed for radioactivity using a calibrated gamma counter with the 55–93 keV energy window for ^197gHg and the 110–160 keV energy window for ^197mHg (Packard Cobra II, Perkin Elmer, Waltham, MA, USA). The stomach and intestines were carefully cleaned prior to analysis to remove residual contents. For tissues and fluids that could not be fully removed (muscle, blood and bone) activity values were extrapolated based on standardised organ weights for age- and sex-matched mice tables to ensure accurate normalization (Davies and Morris [1993]; Foster et al. [2014]). The stomach and whole intestines were cleaned before analysis. The radioactivity measurements were decay corrected for time of injection using the Eqs. (1) and (2). The results are reported as the percentage of the injected activity per gram of tissue (%IA/g) and percentage of the injected activity per tissue (%IA/organ).

**Q.** Which “Animal 4 (%IA/g) g: heart” value (Hg-197g) does the source give for `O=C(CC[S-])OCC(COC(=O)CC[S-])(COC(=O)CC[S-])COC(=O)CC[S-].[Hg+2]` [[^197m/gHg]Hg-Tetrathiol] here?
**A.** Its value is 0.72 %IA/g.

**Q.** What about the “Animal 4 (%IA/g) g: kidneys” value (Hg-197g) of the same compound?
**A.** Its value is 2.58 %IA/g.

**Q.** What about the “Animal 4 (%IA/g) g: large intestine” value (Hg-197g) of the same compound?
**A.** The value was 0.04 %IA/g.

**Q.** What about the “Animal 4 (%IA/g) g: liver” value (Hg-197g) of the same compound?
**A.** The value was 460.16 %IA/g.

**Q.** And the “Animal 4 (%IA/g) g: lungs” value (Hg-197g)?
**A.** Its value is 6.68 %IA/g.

**Q.** And the “Animal 4 (%IA/g) g: muscle” value (Hg-197g)?
**A.** The value was 0.02 %IA/g.

**Q.** What about the “Animal 4 (%IA/g) g: pancreas” value (Hg-197g) of the same compound?
**A.** The value was 0.05 %IA/g.

**Q.** What about the “Animal 4 (%IA/g) g: small intestine” value (Hg-197g) of the same compound?
**A.** The value was 0.13 %IA/g.

**Q.** What about the “Animal 4 (%IA/g) g: spleen” value (Hg-197g) of the same compound?
**A.** Its value is 73.76 %IA/g.

**Q.** What about the “Animal 4 (%IA/g) g: stomach” value (Hg-197g) of the same compound?
**A.** Its value is 0.12 %IA/g.

**Q.** What about the “Animal 4 (%IA/g) g: tail” value (Hg-197g) of the same compound?
**A.** The value was 5.66 %IA/g.

**Q.** What about the “Animal 4 (%IA/g) g: urine” value (Hg-197g) of the same compound?
**A.** Its value is 0.03 %IA/g.

**Q.** What about the “Average (%IA/Organ): bladder” value (Hg-197g) of the same compound?
**A.** Its value is 0.00 %IA/Organ.

**Q.** What about the “Average (%IA/Organ): blood” value (Hg-197g) of the same compound?
**A.** Its value is 0.16 %IA/Organ.

**Q.** And the “Average (%IA/Organ): bone” value (Hg-197g)?
**A.** The value was 2.70 %IA/Organ.

**Q.** What about the “Average (%IA/Organ): brain” value (Hg-197g) of the same compound?
**A.** The value was 0.01 %IA/Organ.

**Q.** And the “Average (%IA/Organ): feces” value (Hg-197g)?
**A.** Its value is 0.00 %IA/Organ.

**Q.** And the “Average (%IA/Organ): heart” value (Hg-197g)?
**A.** Its value is 0.09 %IA/Organ.

**Q.** And the “Average (%IA/Organ): kidneys” value (Hg-197g)?
**A.** Its value is 1.13 %IA/Organ.

**Q.** What about the “Average (%IA/Organ): large intestine” value (Hg-197g) of the same compound?
**A.** The value was 0.02 %IA/Organ.

**Q.** And the “Average (%IA/Organ): lungs” value (Hg-197g)?
**A.** The value was 0.97 %IA/Organ.

**Q.** What about the “Average (%IA/Organ): muscle” value (Hg-197g) of the same compound?
**A.** The value was 0.19 %IA/Organ.

**Q.** What about the “Average (%IA/Organ): pancreas” value (Hg-197g) of the same compound?
**A.** The value was 0.01 %IA/Organ.

**Q.** And the “Average (%IA/Organ): small intestine” value (Hg-197g)?
**A.** Its value is 0.02 %IA/Organ.

**Q.** What about the “Average (%IA/Organ): spleen” value (Hg-197g) of the same compound?
**A.** The value was 4.17 %IA/Organ.

**Q.** And the “Average (%IA/Organ): stomach” value (Hg-197g)?
**A.** The value was 0.04 %IA/Organ.

**Q.** And the “Average (%IA/Organ): tail” value (Hg-197g)?
**A.** The value was 1.05 %IA/Organ.

**Q.** What about the “Average (%IA/Organ): urine” value (Hg-197g) of the same compound?
**A.** The value was 0.00 %IA/Organ.

**Q.** What about the “Average Hg-197g (%IA/g): bladder” value (Hg-197g) of the same compound?
**A.** The value was 0.049 %IA/g.

**Q.** And the “Average Hg-197g (%IA/g): blood” value (Hg-197g)?
**A.** Its value is 0.11 %IA/g.

**Q.** And the “Average Hg-197g (%IA/g): bone” value (Hg-197g)?
**A.** Its value is 1.42 %IA/g.

**Q.** What about the “Average Hg-197g (%IA/g): brain” value (Hg-197g) of the same compound?
**A.** Its value is 0.025 %IA/g.

**Q.** And the “Average Hg-197g (%IA/g): feces” value (Hg-197g)?
**A.** The value was 0.023 %IA/g.

**Q.** And the “Average Hg-197g (%IA/g): heart” value (Hg-197g)?
**A.** The value was 0.71 %IA/g.

**Q.** What about the “Average Hg-197g (%IA/g): kidneys” value (Hg-197g) of the same compound?
**A.** The value was 2.96 %IA/g.

**Q.** What about the “Average Hg-197g (%IA/g): large intestine” value (Hg-197g) of the same compound?
**A.** The value was 0.079 %IA/g.

**Q.** What about the “Average Hg-197g (%IA/g): liver” value (Hg-197g) of the same compound?
**A.** The value was 202.37 %IA/g.

**Q.** What about the “Average Hg-197g (%IA/g): lungs” value (Hg-197g) of the same compound?
**A.** The value was 7.10 %IA/g.

**Q.** What about the “Average Hg-197g (%IA/g): muscle” value (Hg-197g) of the same compound?
**A.** The value was 0.017 %IA/g.

**Q.** And the “Average Hg-197g (%IA/g): pancreas” value (Hg-197g)?
**A.** Its value is 0.058 %IA/g.

**Q.** And the “Average Hg-197g (%IA/g): small intestine” value (Hg-197g)?
**A.** The value was 0.11 %IA/g.

**Q.** And the “Average Hg-197g (%IA/g): spleen” value (Hg-197g)?
**A.** Its value is 64.43 %IA/g.

**Q.** And the “Average Hg-197g (%IA/g): stomach” value (Hg-197g)?
**A.** Its value is 0.37 %IA/g.

**Q.** What about the “Average Hg-197g (%IA/g): tail” value (Hg-197g) of the same compound?
**A.** Its value is 2.18 %IA/g.

**Q.** What about the “Average Hg-197g (%IA/g): urine” value (Hg-197g) of the same compound?
**A.** Its value is 0.029 %IA/g.

**Q.** What about the “Animal 1 (%IA/g) m: bladder” value (Hg-197m) of the same compound?
**A.** The value was 0.05 %IA/g.

**Q.** And the “Animal 1 (%IA/g) m: blood” value (Hg-197m)?
**A.** Its value is 0.10 %IA/g.

**Q.** And the “Animal 1 (%IA/g) m: bone” value (Hg-197m)?
**A.** The value was 2.09 %IA/g.

**Q.** And the “Animal 1 (%IA/g) m: brain” value (Hg-197m)?
**A.** The value was 0.04 %IA/g.

**Q.** What about the “Animal 1 (%IA/g) m: feces” value (Hg-197m) of the same compound?
**A.** The value was 0.04 %IA/g.

**Q.** And the “Animal 1 (%IA/g) m: heart” value (Hg-197m)?
**A.** The value was 0.47 %IA/g.

**Q.** What about the “Animal 1 (%IA/g) m: kidneys” value (Hg-197m) of the same compound?
**A.** The value was 5.53 %IA/g.

**Q.** What about the “Animal 1 (%IA/g) m: large intestine” value (Hg-197m) of the same compound?
**A.** Its value is 0.14 %IA/g.

**Q.** And the “Animal 1 (%IA/g) m: lungs” value (Hg-197m)?
**A.** Its value is 9.10 %IA/g.

**Q.** What about the “Animal 1 (%IA/g) m: muscle” value (Hg-197m) of the same compound?
**A.** The value was 0.01 %IA/g.

**Q.** And the “Animal 1 (%IA/g) m: pancreas” value (Hg-197m)?
**A.** Its value is 0.06 %IA/g.

**Q.** And the “Animal 1 (%IA/g) m: small intestine” value (Hg-197m)?
**A.** The value was 0.16 %IA/g.

**Q.** And the “Animal 1 (%IA/g) m: spleen” value (Hg-197m)?
**A.** Its value is 74.83 %IA/g.

**Q.** And the “Animal 1 (%IA/g) m: stomach” value (Hg-197m)?
**A.** The value was 0.19 %IA/g.

**Q.** And the “Animal 1 (%IA/g) m: tail” value (Hg-197m)?
**A.** The value was 1.72 %IA/g.

**Q.** And the “Animal 1 (%IA/g) m: urine” value (Hg-197m)?
**A.** Its value is 0.03 %IA/g.

**Q.** What about the “Animal 2 (%IA/g) m: bladder” value (Hg-197m) of the same compound?
**A.** Its value is 0.02 %IA/g.
